Source: the supplement of paper PMC10307832

Assays:
Experiment in all cases: relative viability (nuclei count vs DMSO), 5 days (fraction); higher = more cells survive
MK-8033 + Alpelisib = compound: Cn1cc(-c2cnc3ccc4ccc(CS(=O)(=O)NCc5ccccn5)cc4c(=O)c3c2)cn1 [MK-8033] + Cc1nc(NC(=O)N2CCC[C@H]2C(N)=O)sc1-c1ccnc(C(C)(C)C(F)(F)F)c1 [Alpelisib] (partner 2 µM)
Summary of the method: (§1)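 Relative viability divides the nuclei count in treated wells by that in vehicle wells. Lung cancer cell lines were seeded in 1536-well plates, dosed by pin tool the next day, and fixed and stained after 5 days in one step with final 0.05% Triton X-100, 1% formaldehyde and 1 ug/ml Hoechst. Dosing was a single drug or a fixed anchor-drug dose plus five library-drug doses (not always all listed) in √10 steps, and values are medians of duplicate plates imaged at 4×.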

MK-8033 + OSI-027 = compound: Cn1cc(-c2cnc3ccc4ccc(CS(=O)(=O)NCc5ccccn5)cc4c(=O)c3c2)cn1 [MK-8033] + COc1cccc2cc(-c3nc([C@H]4CC[C@H](C(=O)O)CC4)n4ncnc(N)c34)[nH]c12 [OSI-027] (partner 0.5 µM)
Summary of the method: as §1

MK-8033 + Crizotinib = compound: Cn1cc(-c2cnc3ccc4ccc(CS(=O)(=O)NCc5ccccn5)cc4c(=O)c3c2)cn1 [MK-8033] + C[C@@H](Oc1cc(-c2cnn(C3CCNCC3)c2)cnc1N)c1c(Cl)ccc(F)c1Cl [Crizotinib] (partner 1 µM)
Summary of the method: as §1

MK-8033 + Foretinib = compound: Cn1cc(-c2cnc3ccc4ccc(CS(=O)(=O)NCc5ccccn5)cc4c(=O)c3c2)cn1 [MK-8033] + COc1cc2c(Oc3ccc(NC(=O)C4(C(=O)Nc5ccc(F)cc5)CC4)cc3F)ccnc2cc1OCCCN1CCOCC1 [Foretinib] (partner 0.25 µM)
Summary of the method: as §1

Cell Line	relative viability (MK-8033 + Alpelisib; first compound 0.02 µM)	relative viability (MK-8033 + Alpelisib; first compound 0.06325 µM)	relative viability (MK-8033 + Alpelisib; first compound 0.2 µM)	relative viability (MK-8033 + Alpelisib; first compound 0.6325 µM)	relative viability (MK-8033 + Alpelisib; first compound 2 µM)	relative viability (MK-8033 + OSI-027; first compound 0.02 µM)	relative viability (MK-8033 + OSI-027; first compound 0.06325 µM)	relative viability (MK-8033 + OSI-027; first compound 0.2 µM)	relative viability (MK-8033 + OSI-027; first compound 0.6325 µM)	relative viability (MK-8033 + OSI-027; first compound 2 µM)	relative viability (MK-8033 + Crizotinib; first compound 0.02 µM)	relative viability (MK-8033 + Crizotinib; first compound 0.06325 µM)	relative viability (MK-8033 + Crizotinib; first compound 0.2 µM)	relative viability (MK-8033 + Crizotinib; first compound 0.6325 µM)	relative viability (MK-8033 + Crizotinib; first compound 2 µM)	relative viability (MK-8033 + Foretinib; first compound 0.02 µM)	relative viability (MK-8033 + Foretinib; first compound 0.06325 µM)	relative viability (MK-8033 + Foretinib; first compound 0.2 µM)	relative viability (MK-8033 + Foretinib; first compound 0.6325 µM)	relative viability (MK-8033 + Foretinib; first compound 2 µM)
NCI-H23	0.737	0.639	0.679	0.668	0.633	0.496	0.525	0.553	0.605	0.538	0.446	0.391	0.487	0.468	0.552	0.826	0.932	0.961	1.02	0.942
NCI-H322M	0.697	0.77	0.801	0.792	0.839	0.568	0.442	0.598	0.604	0.524	0.855	0.778	0.835	0.939	0.954	0.918	0.868	0.955	1.03	0.965
NCI-H358	0.794	0.755	0.725	0.797	0.772	0.799	0.64	0.613	0.812	0.58	0.493	0.503	0.595	0.434	0.508	0.801	0.511	0.72	0.565	0.643
NCI-H441	0.853	0.643	0.648	0.709	0.67	0.653	0.597	0.698	0.788	0.469	0.753	0.646	0.681	0.778	0.691	0.842	1.02	0.967	0.968	0.896
NCI-H460	0.496	0.368	0.348	0.4	0.435	0.643	0.627	0.547	0.686	0.472	0.949	0.793	0.879	0.822	0.844	1.02	0.961	0.947	1.02	1.01
NCI-H520	0.806	0.841	0.832	0.905	0.871	0.256	0.287	0.302	0.25	0.222	0.797	0.678	0.663	0.59	0.78	0.992	0.777	0.762	0.844	0.556
NCI-H596	0.436	0.511	0.462	0.46	0.477	0.798	0.612	0.607	0.706	0.599	0.913	0.941	0.921	0.991	1.01	0.763	0.733	0.957	0.477	0.886
NCI-H647	1.18	1.02	0.929	1.16	1.07	0.69	0.723	0.534	0.46	0.582	1.03	0.891	0.959	0.919	0.928	1.09	1.15	1.02	1.17	1.1
